Some results are limits rather than exact numbers.

The values below come from BindingDB's records for doi:10.1007/bf00572436 (1985).

For this experiment, the target named is T1, Adenosine receptor A1 (Bos taurus, UniProt P28190).
T1 sequence (P28190 whole entry): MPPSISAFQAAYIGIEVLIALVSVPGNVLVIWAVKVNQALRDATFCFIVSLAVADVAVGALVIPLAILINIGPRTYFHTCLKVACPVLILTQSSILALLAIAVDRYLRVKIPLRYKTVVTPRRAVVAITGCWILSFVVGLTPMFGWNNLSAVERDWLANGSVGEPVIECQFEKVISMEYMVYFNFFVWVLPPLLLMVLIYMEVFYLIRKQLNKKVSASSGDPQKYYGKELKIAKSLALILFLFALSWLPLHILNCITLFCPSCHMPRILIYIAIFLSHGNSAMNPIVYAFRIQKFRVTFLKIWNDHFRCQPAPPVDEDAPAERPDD
One may read the Ki as a dissociation constant, usually derived from enzyme kinetics or from competition with a known ligand. High values mean weaker binding, low ones tighter binding. `Cn1c(=O)c2c(ncn2C)n(C)c1=O` showed a Ki above 10 µM.

The molecule `Cn1c(=O)[nH]c2ncn(C)c2c1=O` [1,7-dimethylxanthine] displayed an inhibition constant (Ki) above 10 µM.

`CC(=O)CCCCn1c(=O)c2c(ncn2C)n(C)c1=O` [1-(5-Oxohexyl)theobromine (pentoxifylline)] returned a Ki above 10 µM.

In turn, `CC(C)Cn1c(=O)n(C)c(=O)c2[nH]cnc21` [1-methyl-3-(2-methylpropyl)-2,3,6,7-tetrahydro-1H-purine-2,6-dione] returned a Ki of 2.5 µM.

`CCCn1c(=O)[nH]c(=O)c2[nH]cnc21` [3-Propylxanthine (enprofylline)] yielded a Ki above 10 µM.

The molecule `CC(O)Cn1cnc2c1c(=O)n(C)c(=O)n2C` (stereo unspecified) [7-(2-Hydroxy-propyl)-1,3-dimethyl-3,7-dihydro-purine-2,6-dione(Proxyphylline)] gave a Ki above 10 µM.

`CC(=O)Oc1ccc(-c2nc3c([nH]2)c(=O)n(C)c(=O)n3C)cc1` [8-(4-Acetoxyphenyl)theophylline]: the Ki worked out at 0.023 µM.

Take `Cn1c(=O)c2nc(-c3ccc(O)cc3)[nH]c2n(C)c1=O` [8-(4-Hydroxy-phenyl)-1,3-dimethyl-3,7-dihydro-purine-2,6-dione]: the inhibitory constant (Ki) was 0.0034 µM.

As to `CCCn1c(=O)c2nc(-c3ccc(O)cc3)[nH]c2n(CCC)c1=O` [8-(4-Hydroxy-phenyl)-1,3-dipropyl-3,9-dihydro-purine-2,6-dione], the Ki was 0.0032 µM.

Molecule `Cn1c(=O)c2c(ncn2CCO)n(C)c1=O` [BETA-HYDROXYETHYL THEOPHYLLINE] displayed a Ki above 10 µM.

`Cn1c(=O)c2c(ncn2C[C@H](O)CO)n(C)c1=O` [Diprophylline] came in with an inhibition constant Ki above 10 µM.

On to `O=c1[nH]c(=O)c2[nH]cnc2[nH]1` [NSC_1188], for which the Ki is above 10 µM.

Take `CCN(CC)CCn1cnc2c1c(=O)n(C)c(=O)n2C` [NSC_28329]: the Ki was above 10 µM.

Take `CC(O)Cn1c(=O)c2c(ncn2C)n(C)c1=O` (stereo unspecified) [NSC_66120]: the Ki is above 10 µM.

The molecule `CCCn1c(=O)c2[nH]c(-c3ccc(Cl)cc3N)nc2n(CCC)c1=O` [NSC_92411] showed an inhibition constant (Ki) of 0.0003 µM.

In turn, `Cn1cnc2c1c(=O)[nH]c(=O)n2C` [theobromine] showed an inhibition constant Ki above 10 µM.
